Measured values: PubChem BioAssay (NCI)
Several values for one entry are separate records, joined by “and”; a condition that tells them apart may be missing. Equal values may be shown once.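 Values below derive from 48-hour exposures of cells grown in 96-well plates, with endpoints linearly interpolated between the two concentrations bracketing the appropriate inhibition level. GI50 marks 50% less growth. TGI is the concentration that stops growth completely.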

Assays:
Assay in all cases: NCI anticancer screen, dose series, 48 h
SNB-19 CNS = tested on: SNB-19 CNS
OVCAR-8 ovarian = tested on: OVCAR-8 ovarian
SK-MEL-28 melanoma = tested on: SK-MEL-28 melanoma
HOP-62 NSCLC = tested on: HOP-62 NSCLC
NCI-H522 lung = tested on: NCI-H522 lung
SNB-75 CNS = tested on: SNB-75 CNS
NCI-H23 lung = tested on: NCI-H23 lung
A549 NSCLC = tested on: A549 NSCLC
MOLT-4 leukemia = tested on: MOLT-4 leukemia
SR leukemia = tested on: SR leukemia

SMILES	GI50 (SNB-19 CNS)	TGI (SNB-19 CNS) [µM]	GI50 (OVCAR-8 ovarian)	TGI (OVCAR-8 ovarian) [µM]	GI50 (SK-MEL-28 melanoma)	TGI (SK-MEL-28 melanoma) [µM]	GI50 (HOP-62 NSCLC)	TGI (HOP-62 NSCLC) [µM]	GI50 (NCI-H522 lung)	TGI (NCI-H522 lung) [µM]	GI50 (SNB-75 CNS)	TGI (SNB-75 CNS) [µM]	GI50 (NCI-H23 lung)	TGI (NCI-H23 lung) [µM]	GI50 (A549 NSCLC)	TGI (A549 NSCLC) [µM]	GI50 (MOLT-4 leukemia)	TGI (MOLT-4 leukemia) [µM]	GI50 (SR leukemia)	TGI (SR leukemia) [µM]
C/C(Cc1ccc(Cl)cc1)=C(/c1ccc(Cl)cc1)c1ccc(OCCN(C)C)cc1	5.04 µM	9.62	5.75 µM	13.7	4.85 µM	9.29	6.07 µM	11.8	5.31 µM	11.4	3.47 µM	7.93	4.54 µM	9.14	4.52 µM	10.3	4.01 µM	10	0.991 µM	3.81
COc1ccc(-c2cc(-c3cc(OC)c(OC)c(OC)c3)c(C#N)c(N3CCOCC3)n2)cc1O	5.33 µM	> 100	6.11 µM	> 100	> 21.8 µM	> 94.8	33.2 µM	> 100	5.14 µM	> 53.6	2.2 µM	> 25.6	26.7 µM	> 100	4.71 µM	> 100	4.36 µM	> 100	1.1 µM	> 100
C[C@H]1C(Oc2ccc(O)cc2)OC2OC3(C)CCC4[C@H](C)CCC1C24OO3 (stereo partly specified)	17.1 µM	36.5	2.12 µM	25.4	18.4 µM	39.5	21.8 µM	51.5	11 µM	25.3	17.6 µM	39.3	12 µM	27.7	12.2 µM	30.6	–	> 63.6	–	> 100
CN(C)c1n/c(=N/c2ncn[nH]2)ss1	–	> 100	–	> 100	–	> 100	–	> 100	–	> 100	–	> 100	–	> 100	–	> 100	–	> 100	–	> 100
N#Cc1ccc(C(c2ccc(C#N)cc2)n2cncn2)cc1	> 5000 µM	> 5000	–	> 5000	–	> 5000	915 µM	> 5000	–	> 5000	> 5000 µM	> 5000	> 5000 µM	> 5000	> 5000 µM	> 5000	> 5000 µM	> 5000	> 5000 µM	> 5000
Nc1nc(N)c2nc(CNc3ccc(C(=O)NC(CCCNC(=O)c4ccccc4C(=O)O)C(=O)O)cc3)cnc2n1 (stereo unspecified)	–	> 100	0.0015 µM	> 100	–	> 100	< 0.02 µM and 0.00449 µM and < 0.0546 µM	> 100	0.016 µM	> 100	–	> 100	0.00401 µM	> 100	0.00379 µM	> 100	0.00353 µM	> 100	0.000424 µM	> 100
COc1ccccc1S(=O)(=O)Nc1ccc2c(c1)CN(C)C(=O)N2	7.3 µM and 5.07 µM	> 100	10.1 µM and 10.8 µM	> 100	5.62 µM and 7.41 µM	> 100	4.93 µM and 4.22 µM	> 100	2.34 µM and 4.75 µM	> 91.7	0.266 µM and 0.481 µM	–	7.03 µM and 12.8 µM	> 100	9.07 µM and 22.2 µM	> 100	11 µM and 12.7 µM	> 100	2.4 µM and 3.49 µM	> 100
COC(=O)C(Cc1nc2ccc(Cl)cc2[nH]c1=O)/C(=N/NC(N)=O)C(=O)Nc1ccc(Cl)cc1 (stereo unspecified)	–	> 100	–	> 100	–	> 100	–	> 100	–	> 100	–	> 100	–	> 100	–	> 100	–	> 100	–	> 100
Cn1c2cc(O)cc(O)c2c(=O)c2c([N+](=O)[O-])cccc21	–	> 100	–	> 100	–	> 100	–	> 100	–	> 100	–	> 100	–	> 100	–	> 100	–	> 100	–	> 100
CNC1C(O)C(OC2C(N)CC(N)C(OC3OC(C(C)O)C(O)C(O)C3N)C2O)OCC1(C)O (stereo unspecified)	–	> 100	–	> 100	–	> 100	–	> 100	–	> 100	–	> 100	–	> 100	–	> 100	–	> 100	–	> 100
O=C(NO)C(=O)Nc1ccc(Cl)cc1[N+](=O)[O-]	–	> 100	–	> 100	–	> 100	–	> 100	–	> 100	–	> 100	–	> 100	–	> 100	–	> 100	–	> 100
C=C1C(=O)O[C@H]2[C@H]1CC/C(COC(=O)c1ccc(C#N)cc1)=C\CC[C@@]1(C)O[C@@H]21	3.9 µM	15.1	2.75 µM	11.2	2.2 µM	4.82	7.43 µM	22.6	1.55 µM	3.35	7.23 µM	21.4	2.25 µM	6	6 µM	20.5	2.37 µM	6.52	0.548 µM	> 100
CCOC(=O)c1cc2c(n1Cc1ccccc1)-c1oncc1CC2	7 µM	> 100	7.19 µM	66.9	52.4 µM	> 100	5.3 µM	> 100	1.96 µM	17.5	4.68 µM	> 100	6.37 µM	67.1	4.93 µM	> 100	4.73 µM	44.6	2.56 µM	15.5
Cc1cc(C)nc(SC2=C(Nc3cccc(Cl)c3C)C(=O)N(Cc3ccccc3)C2=O)n1	> 160 µM	> 160	> 160 µM	> 160	> 160 µM	> 160	> 160 µM	> 160	> 160 µM	> 160	> 160 µM	> 160	> 160 µM	> 160	> 160 µM	> 160	> 160 µM	> 160	> 160 µM	> 160
COC(OC)[C@@H](C)[C@H](O)[C@](C)(O)C1OC(C)(C)OC(C(C)C=C(C)C)C1C (stereo partly specified)	–	> 100	–	> 100	–	> 100	–	> 100	–	> 100	–	> 100	–	> 100	–	> 100	–	> 100	–	> 100
CSc1ccc(/C=C/c2ccnc3ccccc23)cc1	–	34	–	28.8	–	32.6	–	34.8	–	28.6	–	44.6	–	28.4	–	25	–	66.9	–	32.9
